Results as given in paper PMC11042424, “Development of a First-in-Class RIPK1 Degrader to Enhance Antitumor Immunity” (Research Square, 2024).

How the values were obtained:
[1] = tested on: B16F10 cells; experiment: TNFα-mediated apoptosis in B16F10 cells; assay type: cell-based, mouse; conditions: 1 μM, TNFα 100 ng/mL, 72 hours
Text: Figure 3 LD4172 sensitizes B16F10 cells to TNFα-mediated apoptosis. A, Representative flow cytometry dot plots of apoptosis. In all four plots, viable cells are seen in the left lower quadrant (FITC-/PI-), early apoptotic cells in the right lower quadrant (FITC+/PI-), and late apoptotic cells in the right upper quadrant (FITC+/PI+). B, Representative images of PI (red) and caspase 3/7 (Cas3/7+, green) staining of B16F10 cells. Cell death assessed by PI uptake using Cytation 5 imager. C, Western blots for the expression of cleaved caspase3, cleaved caspase7, and cleaved PARP in B16F10 cells. D, Quantification of extracellular ATP level. Western blots for the expression of HMGB1 and calreticulin in B16F10 cells. E, Immunofluorescence staining of HMGB1 in B16F10 cells. B16F10 cells were treated in the presence or absence of TNFα (100 ng/mL), Z-VAD-FMK (25 μM), LD4172 (1 μM), and/or T2I (1 μM) as indicated for 72 hours. Data are representative of three independent experiments. Error bars represent SD.
Apoptosis quantification was conducted utilizing a FITC-conjugated Annexin V/PI assay kit (556547, BD Biosciences) and analyzed through flow cytometry. Briefly, 2×10^5 of B16F10 cells were seeded onto six-well plates and treated as specified for 72 hours at 37°C. Treated and untreated cells were harvested, washed with PBS, and resuspended in 100 μl of binding buffer. […]

[2] = tested on: B16F10 tumors; experiment: B16F10 syngeneic tumor model with anti-PD1; assay type: in vivo; conditions: B16F10 tumors; 20 mg/kg i.p. daily plus anti-PD1 100 μg i.p. every three days
Procedure: Figure 4 LD4172 synergizes with Anti-PD1 to inhibit tumor growth. A, Plasma concentrations of LD4172 in C57BL/6J mice administered 1 mg/kg intravenously (i.v.) or 10 mg/kg intraperitoneally (i.p.) (n=4). B, Representative immunoblots of RIPK1 in different tissues of C57BL/6J mice treated with LD4172 (n=3–4). C, Densitometric analysis of RIPK1 protein levels in different tissues (n=3 or 4). D, Representative immunoblots of RIPK1 levels of B16F10 cells transduced with gRNA specific for RIPK1 or non-targetable control (sgNC). E, B16F10-RIPK1-KO tumors sensitized to anti-PD1 treatment: 3×10^5 B16F10 cells transduced with gRNA specific for RIPK1 or non-targetable control (sgNC) were inoculated into C57BL/6J mice. After seven days, mice with measurable tumors (~100 mm3) were randomly treated with or without anti-PD1 in vivo (100 μg per dose, i.p., every three days, n=8). F, Tumor growth curve of mice with B16F10 tumors treated with LD4172 and/or anti-PD1 (n=8). C57B6/J mice were subcutaneously inoculated with 3×10^5 B16F10 tumor cells. After seven days (tumor size ~ 100 mm3), mice were treated every three days with anti- PD1 (100 μg per dose, i.p.), daily with LD4172 (20 mg/kg, i.p.), a combination of LD4172 and anti-PD1 (same dose as their individual doses), or their corresponding vehicle control. G, Kaplan-Meier survival curve for all experimental groups. H, Final tumor weight (g) from F after 22d of treatment (n=8). I, Representative images of B16F10 tumors collected at the end of treatment. J, Mouse body weight (n=8). K, Tumor growth curve of mice with B16F10 tumors treated with T2I and/or anti-PD1 (n=8). The experimental conditions and treatment regimens were the same as F except using the RIPK1 kinase inhibitor T2I (20 mg/kg, i.p.) to replace LD4172. Representative data from at least three independent experiments are shown. Data are expressed as the mean ± SEM. * p<0.05; ** p<0.01; *** p<0.001, **** p<0.0001, respectively. ns, indicates no statistical significance.
To establish a syngeneic mouse model, 3× 10^5 B16F10 cells resuspended in PBS were mixed 1:1 by volume with Matrigel (354262, Corning) and subcutaneously injected into the right flank of seven-week-old wild-type female C57BL/6J mice on day 0. Treatments were started on day 7 when the tumor volume reached approximately 100 mm^3. Antibodies were administered in 100μL volumes and injected intraperitoneally every three days for the following: anti-PD1 (100 μg, BE0146, BioXcell) and anti-CD8 (500 μg, BE0004, BioXcell). The RIPK1 degrader LD4172 and RIPK1 kinase inhibitor T2I were delivered in 200 μL of vehicle solution (30% PEG400, 5% Tween-80, 5% DMSO) once daily (20 mg/kg, i.p. injection). […] Tumors were measured every three days beginning on day 7 after the challenge until death. […]

## CCn1cc(-c2ccc3c(c2)CCN3C(=O)Cc2cccc(OC(F)(F)F)c2)c2c(N)ncnc21 [T2I, reference compound]
[1]
  cell death / apoptosis in combination with TNFα: did not trigger TNFα-mediated apoptosis
[2]
  tumor response in combination with anti-PD1: failed to sensitize B16F10 tumors to anti-PD1 treatment
